Laboratory results taken from US12590062B2, “PD-1/PD-L1 inhibitors” (Gilead Sciences, Inc., priority 2017, dated 2026).

Tests used:
PD-1/PD-L1 = PD-1/PD-L1 (Homo sapiens, UniProt Q9NZQ7); assay: PD-1/PD-L1 biochemical protein-protein interaction assay (ALPHA); format: binding; conditions: 0.3 nM His tagged PD-L1, 2.5 nM biotinylated Fc-PD-1, 60 minutes at 25° C., read-out: IC50 PD-L1-PD-1 Alpha IC50-mono PD-L1-fcP-D1
Outline: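 ALPHA bead proximity assay of extracellular domains: 0.3 nM His-PD-L1 with 2.5 nM biotinylated Fc-PD-1 in 25 mM Hepes pH 7.4, 150 mM NaCl, 3.4 mM EDTA, 0.005% Tween 20, 0.01% BSA, 60 min at 25 °C. Anti-His acceptor and streptavidin donor beads added; IC50 from four-parameter fit of signal loss.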

PD-L1 = molecular target: T1, PD-L1 (Homo sapiens, UniProt Q9NZQ7); assay: PD-L1/PD-L1 dimerization biochemical protein-protein interaction assay (ALPHA); format: binding; conditions: compound-induced PD-L1 dimerization, head prints '1 nM' (0.5 nM His-tagged PD-L1 and 0.5 nM FLAG-tagged PD-L1), read-out: AC50 PDL1 Dimer Alpha 1 nM
T1 construct: determine if they can specifically dimerize the extracellular domains of PD-L1
T1 sequence (Q9NZQ7 19-238 limits assumed): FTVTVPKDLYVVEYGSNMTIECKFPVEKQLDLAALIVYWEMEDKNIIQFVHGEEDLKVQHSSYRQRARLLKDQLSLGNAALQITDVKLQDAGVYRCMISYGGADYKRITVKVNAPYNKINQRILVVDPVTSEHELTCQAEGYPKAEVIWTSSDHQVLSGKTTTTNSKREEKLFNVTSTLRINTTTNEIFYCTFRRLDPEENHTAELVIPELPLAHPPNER
T1 sequence (Q9NZQ7 19-238 limits assumed): as above
Outline: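 ALPHA proximity assay of compound-induced dimerization of 0.5 nM His-tagged and 0.5 nM FLAG-tagged PD-L1 extracellular domains in Hepes pH 7.4 buffer, 2 h at 25 °C. Anti-His acceptor then anti-FLAG donor beads, 60 min each; AC50 from four-parameter fit.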

PD-1/PD-L1 interaction = molecular target: T2, PD-1/PD-L1 interaction (Homo sapiens, UniProt Q9NZQ7); assay: PD-1/PD-L1 NFAT reporter co-culture assay; format: cell-based; conditions: Jurkat PD-1 NFAT-luciferase cells co-cultured with aAPC-PD-L1 CHO cells, 6 hrs at 37° C.; read-out: EC50 NFAT Luciferase
T2 construct: expressed in transfected cells; host or cells: CHO cells (aAPC-PD-L1) co-cultured with Jurkat cells overexpressing PD-1 and an NFAT-luciferase reporter
T2 sequence (Q9NZQ7 19-290): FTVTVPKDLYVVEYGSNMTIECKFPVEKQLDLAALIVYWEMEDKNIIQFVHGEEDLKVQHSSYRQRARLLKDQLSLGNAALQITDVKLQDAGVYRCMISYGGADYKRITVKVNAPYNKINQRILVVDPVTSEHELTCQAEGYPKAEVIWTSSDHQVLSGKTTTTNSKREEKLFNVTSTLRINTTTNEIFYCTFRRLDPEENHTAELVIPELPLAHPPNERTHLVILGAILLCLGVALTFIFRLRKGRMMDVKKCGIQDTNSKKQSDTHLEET
Outline: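 Restoration of TCR-driven NFAT luciferase signal: 6 h, 37 °C co-culture of PD-1 Jurkat reporter cells (pre-mixed with compound) on overnight-seeded PD-L1/anti-CD3 CHO monolayer. ONE-Glo luminescence; dose-response fitted to four-parameter equation for EC50.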

PD-1/PD-L1, sequence (Q9NZQ7 19-238 limits assumed): as the sequence (Q9NZQ7 19-238 limits assumed) above

IC50 (PD-1/PD-L1) [nM]	AC50 (PD-L1) [nM]	EC50 (PD-1/PD-L1 interaction) [nM]	Structure (SMILES)
0.13	138	314	Cc1c(COc2cc(OCc3cncc(C#N)c3)c(CN[C@@](C)(CO)C(=O)O)cc2Cl)cccc1-c1cccc(-c2ccc(CN[C@H]3CC[C@H](O)CC3)cc2)c1C [Example 361, (S)-2-((5-chloro-2-((5-cyanopyridin-3-yl)methoxy)-4-((4″-((((1r,4r)-4-hydroxycyclohexyl)amino)methyl)-2,2′-dimethyl-[1,1′:3′,1″-terphenyl]-3-yl)methoxy)benzyl)amino)-3-hydroxy-2-methylpropanoic acid]
0.358	≥ 10000	202	COc1cc(OCc2cccc(-c3cccc(COc4cc(OC)c(CNC[C@@H](O)CC(=O)O)cc4C(F)(F)F)c3C)c2C)c(Cl)cc1CNC[C@@H](O)CC(=O)O [Example 357, (S)-4-((4-((3′-((4-((((S)-3-carboxy-2-hydroxypropyl)amino)methyl)-2-chloro-5-methoxyphenoxy)methyl)-2,2′-dimethyl-[1,1′-biphenyl]-3-yl)methoxy)-2-methoxy-5-(trifluoromethyl)benzyl)amino)-3-hydroxybutanoic acid]
0.064	15.2	107	C[C@@](CO)(NCc1cc(Cl)c(O[C@H]2CCc3c(-c4cccc(-c5ccc(OCCNCCO)cc5)c4Cl)cccc32)nc1OCc1cncc(S(C)(=O)=O)c1)C(=O)O [Example 660]
0.064	103	125	Cc1c(COc2cc(OCc3cncc(C#N)c3)c(CNC[C@@H](O)CC(=O)O)cc2Cl)cccc1-c1cccc(-c2ccc(OCCN3CC4(CCC(=O)N4)C3)cc2)c1C [Example 519]
0.242	70.4	704	COc1nc(O[C@H]2CCc3c(-c4cccc(-c5ccc(CNC[C@@H]6CCC(=O)N6)cc5)c4Cl)cccc32)c(Cl)cc1CN1CC[C@H](O)C1 [Example 718]
0.071	56	72	Cc1c(COc2cc(OCc3cncc(C#N)c3)c(CNC[C@@H](O)CC(=O)O)cc2Cl)cccc1-c1cccc(-c2ccc(CNC[C@@H]3CCC(=O)N3)cc2)c1C [Example 574]
0.064	22.1	51	CS(=O)(=O)c1cncc(COc2nc(O[C@H]3CCc4c(-c5cccc(-c6ccc(CN)cc6)c5Cl)cccc43)c(Cl)cc2CNC[C@@H](O)CC(=O)O)c1 [Example 659]
0.064	18.9	16	COc1nc(-c2cccc(-c3cccc4c3CC[C@@H]4Oc3nc(OC)c(CN4CCC[C@H](C(=O)O)C4)cc3Cl)c2Cl)ccc1CNC[C@@H]1CCC(=O)N1 [Example 759]
0.1	340	≥ 50000	OCCNCc1cc(Cl)c2nc(-c3cccc(-c4cccc(-c5nc6c(Cl)cc(CNCCO)cn6n5)c4Cl)c3Cl)nn2c1 [Example 635]
0.39	261	240	COc1nc(-c2cccc(-c3csc(-c4cnc(CNC[C@@H]5CCC(=O)N5)c(OC)n4)c3)c2Cl)ccc1CNC[C@@H]1CCC(=O)N1 [Example 600]
0.147	314	2980	COc1nc(-c2cccc(-c3cccc(N4Cc5cc(CNC[C@@H]6CCC(=O)N6)ccc5C4=O)c3Cl)c2Cl)ccc1CNC[C@@H]1CCC(=O)N1 [Example 632]
0.064	57.5	97	Cc1c(COc2cc(OCc3cncc(C#N)c3)c(CN[C@@](C)(CO)C(=O)O)cc2Cl)cccc1-c1cccc(-c2ccc(OCCN3CC4(CCC(=O)N4)C3)cc2)c1C [Example 520]
0.092	56.5	115	Cc1c(COc2cc(OCc3cncc(C#N)c3)c(CN[C@@](C)(CO)C(=O)O)cc2Cl)cccc1-c1cccc(-c2ccc(CNCCCS(N)(=O)=O)cc2)c1C [Example 570]
0.13	441	≥ 50000	COc1nc(-c2cccc(-c3cccc(N4Cc5cc(CN6CC7(CCC(=O)N7)C6)ccc5C4=O)c3Cl)c2Cl)ccc1CN1CC2(CCC(=O)N2)C1 [Example 631]
0.194	37.7	86	COc1nc(-c2cccc(-c3cccc(COc4nc(OCc5cncc(C#N)c5)c(CNC[C@@H]5CCC(=O)N5)cc4Br)c3Cl)c2Cl)ccc1C1=NCCN1 [Example 556]
0.312	82.2	50	COC(=O)[C@@](C)(CO)NCc1cc(Br)c(O[C@H]2CCc3c(-c4cccc(-c5ccc(CNC[C@@H]6CCC(=O)N6)c(OC)n5)c4Cl)cccc32)nc1OCc1cncc(C#N)c1 [Example 743]
0.166	101	289	CS(=O)(=O)c1cncc(COc2nc(OCc3cccc(-c4cccc(-c5ccc(OCCNCCO)cc5)c4Cl)c3Cl)c(Cl)cc2CN2C[C@@H](O)C[C@H]2C(=O)O)c1 [Example 303, (2S,4S)-1-((5-chloro-6-((2,2′-dichloro-4″-(2-((2-hydroxyethyl)amino)ethoxy)-[1,1′:3′,1″-terphenyl]-3-yl)methoxy)-2-((5-(methylsulfonyl)pyridin-3-yl)methoxy)pyridin-3-yl)methyl)-4-hydroxypyrrolidine-2-carboxylic acid]
0.558	131	183	COc1ccc2cc(-c3cccc(-c4cccc(COc5cc(OCc6cncc(C#N)c6)c(CNC[C@@H](O)CC(=O)O)cc5Cl)c4C)c3C)ccc2c1CNC[C@@H](O)CC(=O)O [Example 468]
0.081	171	168	Cc1c(COc2cc(OCc3cncc(C#N)c3)c(CN[C@@](C)(CO)C(=O)O)cc2Cl)cccc1-c1cccc(-c2ccc(CNC3CNC(=O)C3)cc2)c1C (stereo partly drawn) [Example 363, (2S)-2-((5-chloro-2-((5-cyanopyridin-3-yl)methoxy)-4-((2,2′-dimethyl-4″-(((5-oxopyrrolidin-3-yl)amino)methyl)-[1,1′:3′,1″-terphenyl]-3-yl)methoxy)benzyl)amino)-3-hydroxy-2-methylpropanoic acid]
0.084	55.5	177	N#Cc1cncc(COc2cc(O[C@H]3CCc4c(-c5cccc(-c6nc7ccc(CNC[C@@H]8CCC(=O)N8)cn7n6)c5Cl)cccc43)c(Cl)cc2CNC[C@@H]2CCC(=O)N2)c1 [Example 802]
7.88	≥ 10000	≥ 50000	COc1nc(-c2cccc(-c3cccc(-c4ccc5ncc(CN6CC(O)C6)n5c4)c3Cl)c2Cl)ccc1CN1CC(O)C1 [Example 615]
0.552	19.5	≥ 50000	COc1nc(O[C@H]2CCc3c(-c4cccc(-c5ccc(CNCCO)cc5)c4Cl)cccc32)c(Cl)cc1CNCCO [Example 772]
0.064	16.8	77	COc1nc(-c2cccc(-c3cccc4c3CC[C@@H]4Oc3nc(OCc4cncc(C#N)c4)c(CN[C@@](C)(CO)C(=O)O)cc3Cl)c2C)ccc1C1=NCCN1 [Example 749]
0.064	12.2	86	COc1nc(O[C@H]2CCc3c(-c4cccc(-c5ccc(C6=NCCN6)c(OC)n5)c4Cl)cccc32)c(Br)cc1CNC(C)(C)C(=O)O [Example 786]
0.09	229	552	Cc1c(COc2cc(OCc3cncc(C#N)c3)c(CN3CC[C@@H](C(=O)O)C3)cc2Cl)cccc1-c1cccc(-c2ccc(OCCNCCO)cc2)c1C [Example 345, (R)-1-(5-chloro-2-((5-cyanopyridin-3-yl)methoxy)-4-((4″-(2-((2-hydroxyethyl)amino)ethoxy)-2,2′-dimethyl-[1,1′:3′,1″-terphenyl]-3-yl)methoxy)benzyl)pyrrolidine-3-carboxylic acid]
0.135	77.8	163	N#Cc1cncc(COc2nc(OCc3cccc(-c4cccc(-c5ccc(OCCNCCO)cc5)c4Cl)c3Cl)c(Cl)cc2CN2C[C@@H](O)C[C@H]2C(=O)O)c1 [Example 560]
1.01	943	953	Cc1c(COc2cc(OCc3cncc(C#N)c3)c(CN3CC[C@@H](O)C3)cc2Cl)cccc1-c1cccc(-c2ncc(CN3CC[C@@H](O)C3)cn2)c1C [Example 454]
1.26	310	231	COc1nc(-c2csc(-c3cccc(-c4ccc(CNC[C@@H]5CCC(=O)N5)c(OC)n4)c3Cl)c2)ccc1CNC[C@@H]1CCC(=O)N1 [Example 597, (S)-5-((((6-(2-chloro-3-(4-(6-methoxy-5-(((((S)-5-oxopyrrolidin-2-yl)methyl)amino)methyl)pyridin-2-yl)thiophen-2-yl)phenyl)-2-methoxypyridin-3-yl)methyl)amino)methyl)pyrrolidin-2-one]
0.404	26	28	COc1nc(O[C@H]2CCc3c(-c4cccc(-c5ccc(CNC[C@@H]6CCC(=O)N6)c(OCC#N)c5)c4Cl)cccc32)c(Cl)cc1CNC[C@@H]1CCC(=O)N1 [Example 655]
